{"source": "patent US20170368182A1", "about": "“Pharmaceutical Semi-Solid Gels with Entrapped Calcium Phosphate Nanoparticles” (Belmont University, priority 2014, published 2017)", "key": {"[1]": {"experiment": "Osmolality contribution of gel components", "assay_type": "physicochemical", "conditions": "0.68% timolol maleate; 0.5% carbomer 980 calculated from 0.3% carbomer 934", "experimental": "The exact osmolality 0.5% carbomer 980 gel was not known, but it was calculated using the osmolality of 0.3% carbomer 934.^19 The 0.68% timolol maleate contributes 31.4 mOsm and the carbomer contributes approximately 42 mOsm. To make the gel isotonic, 4.1 g of 5% dextrose would need to be added to obtain an isotonic gel with a tonicity of 300 mOsm. However, the results of this experiment will be compared to the results of a similar experiment using carboxymethylcellulose, CMC. […] The gel was thoroughly mixed by hand and then with a stir bar and magnetic stirrer to ensure uniformity.\nAlso, to make the concentrated 9% of the polymer to create enough for 3 gels, 9 g of the polymer was added to a 250 ml beaker. The polymer was hydrated with distilled water to 180 ml which took 1 hour to dissolve through the use of magnetic stirrer and stirring by hand. Next, 0.68 g of timolol maleate salt was added to the beaker with 60 ml of Na CMC. The contents were then q.s to a final concentration of 100 ml. […] Timolol maleate has osmolality of 31 mOsm and Na CMC has a theoretical osmolality of 470 mOsm which mitigated the need to add dextrose to reach osmolality.^18 The pH was assessed by using an electrode and the pH was between 7-8 which prevented the need to add sodium hydroxide to get to the physiological pH. […]"}, "[2]": {"conditions": "Example 2; Na CMC value theoretical; cited from earlier work"}, "[3]": {"conditions": "low viscosity ophthalmic solutions; cited from earlier work"}, "[4]": {"conditions": "first seven years of use / commercial production of ophthalmic product, cited from earlier work"}}, "note": "Counter-ions that a name gives are not always drawn. Like-named read-outs stand apart in the source and are kept apart here.", "data": [{"smiles": "CC(C)(C)NC[C@H](O)COc1nsnc1N1CCOCC1", "note": "[Timolol maleate]", "values": [{"measurement": "osmolality contribution", "setting": "[1]", "result": 31.4, "unit": "mOsm"}, {"measurement": "osmolality", "setting": "[2]", "result": 31, "unit": "mOsm"}, {"measurement": "share of Timolol that reaches intraocular tissues", "setting": "[3]", "result": "less than 5%"}, {"measurement": "deaths", "setting": "[4]", "result": "Thirty two"}, {"measurement": "deaths", "setting": "[4]; listed as timolol maleate", "result": "~37"}]}]}
